Test results reported in patent publication US20260286396A1, “AXL KNOCK OUT CAR T CELLS AND METHODS FOR USE THEREOF” (priority 2023, published 2026).

Tested on: CART19 cells
Experiment: RNA sequencing of CART19 cells with Ingenuity pathway analysis (pathways, upstream regulators)
Assay type: cell-based, human
Experimental: CART19 cells were isolated using CD4 and CD8 microbeads to […] the JeKo-1 target cells; this isolation step was performed twice to eliminate the possible contamination of JeKo-1 cells. RNA was isolated from the CART19 cells using QIAGEN RNEASY® Plus Mini Kit. RNA was further treated with DNase I (QIAGEN) and purified using RNA Clean & Concentrator (Zymo Research). […] The fastq files were viewed in FastQC to check for quality (Cox et al., Mol Ther., 29 (4): 1529-1540, 2020). After verifying the lack of adapter sequences with FastQC, Cutadapt (Martin, EMBnet, 17:10-12, 2011) was used to filter for reads greater than 32 base pairs. Output files were re-checked for quality using FastQC. The latest human reference genome (GRCh38.p13) was downloaded from NCBI. Genome index files were generated using STAR (Cox et al. 2020, supra, and Dobin et al., Bioinformatics, 29:15-21, 2012). Paired end reads from fastq files were mapped to the genome for each condition. HTSeq was used to generate expression counts for each gene (Cox et al. 2020, supra; and Putri et al., Bioinformatics, 38:2943-2945, 2022). […] The disruption efficiency of the CRISPR/Cas9 GM-CSF knockout was determined using targeted sequencing through PCR and TIDE analysis (software available at tide.nki.nl) as described elsewhere (Sakemura et al. 2021, supra).
RNA sequencing of CART19 cells was then performed. […] Data were analyzed with the use of QIAGEN Ingenuity Pathway Analysis (IPA) (digitalinsights.qiagen.com/IPA; Krämer et al., Bioinformatics 30 (4): 523-530, 2014).

[1] = Upstream Regulator KLF11, 30 nM, 24 hours vs vehicle
[2] = Upstream Regulator LAMA4, 30 nM, 24 hours vs vehicle
[3] = Upstream Regulator LARP1, flag bias, 30 nM, 24 hours vs vehicle
[4] = Upstream Regulator MFSD2A, 30 nM, 24 hours vs vehicle
[5] = Upstream Regulator MSC, 30 nM, 24 hours vs vehicle
[6] = Upstream Regulator MYC, 30 nM, 24 hours vs vehicle
[7] = Upstream Regulator MYCN, 30 nM, 24 hours vs vehicle
[8] = Upstream Regulator NELFB, 30 nM, 24 hours vs vehicle
[9] = Upstream Regulator NFAT5, 30 nM, 24 hours vs vehicle
[10] = Upstream Regulator NR3C1, 30 nM, 24 hours vs vehicle
[11] = Upstream Regulator NT5E, 30 nM, 24 hours vs vehicle
[12] = Upstream Regulator NUPR1, 30 nM, 24 hours vs vehicle
[13] = Upstream Regulator PAX5, 30 nM, 24 hours vs vehicle
[14] = Upstream Regulator PDGFB, 30 nM, 24 hours vs vehicle
[15] = Upstream Regulator REL, 30 nM, 24 hours vs vehicle
[16] = Upstream Regulator RXRB, 30 nM, 24 hours vs vehicle
[17] = Upstream Regulator SATB1, 30 nM, 24 hours vs vehicle
[18] = Upstream Regulator SHC1, 30 nM, 24 hours vs vehicle
[19] = Upstream Regulator SMAD3, 30 nM, 24 hours vs vehicle
[20] = Upstream Regulator STAT3, 30 nM, 24 hours vs vehicle
[21] = Upstream Regulator STAT6, 30 nM, 24 hours vs vehicle
[22] = Upstream Regulator STIM1, 30 nM, 24 hours vs vehicle
[23] = Upstream Regulator SYK, 30 nM, 24 hours vs vehicle
[24] = Upstream Regulator TAFAZZIN, 30 nM, 24 hours vs vehicle
[25] = Upstream Regulator TCF3, 30 nM, 24 hours vs vehicle
[26] = Upstream Regulator TCF12, 30 nM, 24 hours vs vehicle
[27] = Upstream Regulator TCR, 30 nM, 24 hours vs vehicle
[28] = Upstream Regulator TFRC, 30 nM, 24 hours vs vehicle
[29] = Upstream Regulator TGF BETA, 30 nM, 24 hours vs vehicle
[30] = Upstream Regulator TGFB2, 30 nM, 24 hours vs vehicle
[31] = Upstream Regulator TIGIT, 30 nM, 24 hours vs vehicle
[32] = Upstream Regulator TLR9, 30 nM, 24 hours vs vehicle
[33] = Upstream Regulator TNF, 30 nM, 24 hours vs vehicle
[34] = Upstream Regulator USP38, 30 nM, 24 hours vs vehicle
[35] = Upstream Regulator ZBTB16, 30 nM, 24 hours vs vehicle
[36] = upstream regulator ACE, CART19 stimulated with JeKo-1, 30 nM TP-0903 vs vehicle, 24 hours
[37] = upstream regulator AMBRA1, CART19 stimulated with JeKo-1, 30 nM TP-0903 vs vehicle, 24 hours
[38] = upstream regulator CCR2, CART19 stimulated with JeKo-1, 30 nM TP-0903 vs vehicle, 24 hours
[39] = upstream regulator CIP2A, CART19 stimulated with JeKo-1, 30 nM TP-0903 vs vehicle, 24 hours
[40] = upstream regulator ERBB3, CART19 stimulated with JeKo-1, 30 nM TP-0903 vs vehicle, 24 hours
[41] = upstream regulator HGF, CART19 stimulated with JeKo-1, 30 nM TP-0903 vs vehicle, 24 hours
[42] = upstream regulator IKBKG, CART19 stimulated with JeKo-1, 30 nM TP-0903 vs vehicle, 24 hours
[43] = upstream regulator IL7, CART19 stimulated with JeKo-1, 30 nM TP-0903 vs vehicle, 24 hours
[44] = upstream regulator PPARD, CART19 stimulated with JeKo-1, 30 nM TP-0903 vs vehicle, 24 hours
[45] = upstream regulator SMAD4, CART19 stimulated with JeKo-1, 30 nM TP-0903 vs vehicle, 24 hours

CN1CCN(Cc2ccc(Nc3ncc(Cl)c(Nc4ccccc4S(=O)(=O)N(C)C)n3)cc2)CC1 [TP-0903, Dubermatinib]
Expr Log Ratio [1]: −0.037
Predicted Activation State [1]: inhibited
Activation Z-Score [2]: 2.985
Expr Log Ratio [2]: −1.478
Predicted Activation State [2]: activated
Expr Log Ratio (Upstream Regulator LARP1, 30 nM, 24 hours vs vehicle): −0.22
Activation Z-Score [3]: 3.461
Predicted Activation State [3]: activated
Expr Log Ratio (Upstream Regulator MED12, 30 nM, 24 hours vs vehicle): 0.075
Activation Z-Score (Upstream Regulator MEK, 30 nM, 24 hours vs vehicle): −1.682
Activation Z-Score [4]: 2.219
Expr Log Ratio [4]: −0.204
Predicted Activation State [4]: activated
Activation Z-Score (Upstream Regulator MIR-34A-5P (AND OTHER MIRNAS W/SEED GGCAGUG), flag bias, 30 nM, 24 hours vs vehicle): 0.22
Activation Z-Score (Upstream Regulator MIR-155-5P (MIRNAS W/SEED UAAUGCU), flag bias, 30 nM, 24 hours vs vehicle): 1.95
Activation Z-Score (Upstream Regulator MIR-155, 30 nM, 24 hours vs vehicle): 0.713
Activation Z-Score [5]: 0.707
Expr Log Ratio [5]: 0.103
Activation Z-Score [6]: −1.663
Expr Log Ratio [6]: −0.584
Activation Z-Score [7]: −2.592
Expr Log Ratio [7]: −0.217
Predicted Activation State [7]: inhibited
Activation Z-Score [8]: −1
Expr Log Ratio [8]: 0.032
Activation Z-Score [9]: −0.466
Expr Log Ratio [9]: −0.006
Activation Z-Score [10]: 0.182
Expr Log Ratio [10]: 0.097
Activation Z-Score [11]: 0.447
Expr Log Ratio [11]: 0.513
Activation Z-Score [12]: 0.396
Expr Log Ratio [12]: 1.017
Activation Z-Score [13]: −1.01
Expr Log Ratio [13]: −0.607
Activation Z-Score (Upstream Regulator PDGF BB, 30 nM, 24 hours vs vehicle): −0.275
Activation Z-Score [14]: −1.513
Expr Log Ratio [14]: 0.018
Activation Z-Score (Upstream Regulator PKA, 30 nM, 24 hours vs vehicle): −1.077
Activation Z-Score (Upstream Regulator PKC(S), 30 nM, 24 hours vs vehicle): 1.03
Expr Log Ratio (Upstream Regulator POU2F2, 30 nM, 24 hours vs vehicle): −0.143
Activation Z-Score (Upstream Regulator POU2F2, flag bias, 30 nM, 24 hours vs vehicle): −1
Activation Z-Score [15]: −0.988
Expr Log Ratio [15]: 0.266
Activation Z-Score [16]: 1.155
Expr Log Ratio [16]: −0.076
Activation Z-Score [17]: −1.359
Expr Log Ratio [17]: −0.104
Activation Z-Score [18]: 0.963
Expr Log Ratio [18]: 0.076
Activation Z-Score [19]: −1.454
Expr Log Ratio [19]: 0.337
Activation Z-Score [20]: −1.117
Expr Log Ratio [20]: 0.116
Activation Z-Score [21]: −2.16
Expr Log Ratio [21]: −0.088
Predicted Activation State [21]: inhibited
Activation Z-Score [22]: −3
Expr Log Ratio [22]: 0.123
Predicted Activation State [22]: inhibited
Activation Z-Score [23]: −1.203
Expr Log Ratio [23]: −0.298
Activation Z-Score [24]: 0
Expr Log Ratio [24]: −0.111
Activation Z-Score [25]: −0.213
Expr Log Ratio [25]: −0.061
Activation Z-Score [26]: −0.207
Expr Log Ratio [26]: 0.077
Activation Z-Score [27]: −2.683
Predicted Activation State [27]: inhibited
Activation Z-Score [28]: 2.335
Expr Log Ratio [28]: −0.051
Predicted Activation State [28]: activated
Activation Z-Score [29]: −2.031
Predicted Activation State [29]: inhibited
Activation Z-Score [30]: −1.591
Expr Log Ratio [30]: −1.361
Activation Z-Score [31]: −1.982
Expr Log Ratio [31]: 0.2
Activation Z-Score [32]: −0.796
Expr Log Ratio [32]: −0.186
Activation Z-Score [33]: −2.543
Predicted Activation State [33]: inhibited
Expr Log Ratio (Upstream Regulator TP53, 30 nM, 24 hours vs vehicle): 0.089
Activation Z-Score [34]: −1.213
Expr Log Ratio [34]: −0.109
Activation Z-Score [35]: −0.683
Expr Log Ratio [35]: −0.061
Activation Z-Score [36]: 1
Expr Log Ratio [36]: −1.023
Activation Z-Score [37]: 1.808
Expr Log Ratio [37]: −0.003
Activation Z-Score [38]: 0.314
Expr Log Ratio [38]: −1.545
Activation Z-Score [39]: 0
Expr Log Ratio [39]: 0.131
Activation Z-Score [40]: −1
Expr Log Ratio [40]: −1.599
Expr Log Ratio (upstream regulator GPD1, CART19 stimulated with JeKo-1, 30 nM TP-0903 vs vehicle, 24 hours): 0.348
Activation Z-Score [41]: −0.973
Expr Log Ratio [41]: −0.131
Activation Z-Score [42]: −0.788
Expr Log Ratio [42]: 0.136
Activation Z-Score [43]: −0.288
Expr Log Ratio [43]: 0.684
Activation Z-Score (upstream regulator LET-7A-5P (AND OTHER MIRNAS W/SEED GAGGUAG), flag bias, CART19 stimulated with JeKo-1, 30 nM TP-0903 vs vehicle, 24 hours): 1.25
Activation Z-Score (upstream regulator NFKB (COMPLEX), CART19 stimulated with JeKo-1, 30 nM TP-0903 vs vehicle, 24 hours): −1.386
Activation Z-Score (upstream regulator PI3K (COMPLEX), CART19 stimulated with JeKo-1, 30 nM TP-0903 vs vehicle, 24 hours): −1.952
Activation Z-Score [44]: −0.089
Expr Log Ratio [44]: −0.036
Activation Z-Score (upstream regulator SCGB1A1, CART19 stimulated with JeKo-1, 30 nM TP-0903 vs vehicle, 24 hours): 1.993
Activation Z-Score [45]: −0.02
Expr Log Ratio [45]: −0.097
Activation Z-Score (upstream regulator TFPI2, CART19 stimulated with JeKo-1, 30 nM TP-0903 vs vehicle, 24 hours): 1.131
